In data set [1] the test system is PrP^C. Particulars: cited from earlier work.
A short description of data set [2]: Monomer count from cryo-EM rung spacing and length. The format is physicochemical. The settings on record: 4.75 Å rung spacing, 65 nm length, two monomers per rung. An excerpt: Data sets were processed using standard amyloid helical reconstruction procedures implemented in RELION 4.0 [49]. Dose-fractionated micrograph movies were corrected for beam-induced motion using the RELION’s own implementation of motion correction. Contrast transfer function (CTF) parameters were estimated from the motion-corrected micrographs using CTFFIND-4.1 [51]. The start-end coordinates of the Aß filaments were manually marked in the aligned micrographs using RELION 4.0. Segments were extracted with an inter-box distance of 12-Å, a helical rise of 4.75 Å and using a box size of 200 pixels with 1.068 Å per pixel. Extracted segments were subjected to several rounds of reference free two-dimensional (2D) classification to remove suboptimal segments and to select for segments showing detailed features along the filament axis. A three-dimensional (3D) cylinder was generated using the “relion_helix_toolbox” utility and used as reference for an initial 3D classification of the helical segments retained after the 2D classification steps. The initial 3D classification performed on the set of optimal 2D-segments assumed a helical rise of 4.75 Å and a value of the helical twist as estimated from the crossover distances in the 2D class averages. […]

Data set [3] is described as follows: Size exclusion chromatography with PLISA readout. The format is physicochemical. Particulars: Superdex 200, purified Aß spiked in control brain TBS lysate, PLISA of fractions. A general note: SEC sorts molecules by how far they enter the pores of the column.
In data set [4] the test system is Aß42. The experiment in a line: Filament length at end of polymerization reactions (negative stain EM).
Data set [5] concerns PrP^C.
The subject of data set [6] is human iPSC-derived cortical excitatory neurons. In words: Synapse loss in human iPSC-derived cortical neurons. The format is cell-based. Particulars: 7 days. How it is done: Human neurons derived from induced pluripotent stem cells (iPSCs) with Neurogenin2 (Ngn2) stably integrated under doxycycline control were prepared and cultured as described. Poly-D-Lysine-coated 384 well plates (Corning # 354663) were seeded with 2,000 cells in 50 μl of Classic Neuronal Media (CNR: 50% DMEM/F12 (Gibco), 50% Neurobasal-A (Gibco), 0.5X Glutamax (Gibco), 1X MEM Non-Essential Amino Acids Solution (Gibco), 0.5X B27 supplement (Gibco), 0.5X N-2 supplement (Gibco), 10 ng/ml BDNF (PeproTech), 10 ng/ml NT-3 (PeproTech), 1 μg/ml mouse Laminin (Gibco)) containing 2 μg/ml doxycycline hydrochloride (Sigma). On DIV 7 and 14, 50 μl of CNR without doxycycline hydrochloride was added to each well. Every week after that, 30 μl of media was removed from each well and replaced with 30 μL of fresh media. Cells were grown for at least 60 days before treatment with receptor-bound Aßo. […]
Image analysis was performed using ImageXpress built in analysis software, MetaXpress. […] To measure synapsin1/2 density on MAP2, the number of synaptic puncta overlapping with the MAP2 mask were counted and then divided by the area of the MAP2 mask. To measure Synapsin1/2 colocalized with homer1b/c density on MAP2, first, only the round objects of Synapsin1/2 and Homer1b/c colocalized with each other that also overlap with MAP2 were counted and divided by the MAP2 area. […]

The subject of data set [7] is PrP^C. The source holds these as a separate data set.
Data set [8] relates to anti-Aß antibodies. In words: Immunoblot epitope profiling, receptor-bound vs sarkosyl-insoluble Aß. The format is binding. Particulars: n=4 AD brains; for amino-terminal epitope immunoreactivity, receptor-bound vs sarkosyl-insoluble: normalized to mid-region antibody 4G8, HFIP-monomerized. An excerpt: The tubes were then opened and kept in the fume hood overnight at room temperature to evaporate the HFIP. The remaining protein films were resuspended in 1X Laemmli buffer supplemented with 8 M urea. The resulting samples were separated on 4-20% gradient Criterion Tris-Glycine gels (BioRad), transferred onto the nitrocellulose membranes, blocked with Rockland fluorescent Western Blot blocking buffer and immunoprobed with the appropriate detection antibodies overnight at 4C, washed in PBST, incubated the IRdye conjugated secondary antibodies (LiCor) for 1 h at RT and imaged on the near-infrared scanner (LiCor Odyssey). Both primary and secondary antibody were diluted in Rockland fluorescent Western Blot blocking buffer. The immunoblot data quantitation was performed using the LiCor ImageStudio software.

Data set [9] has as its system Aß42. In words: Thioflavin-T polymerization of Aß42. The format is biochemical.
Data set [10] in a line: Electron microscopy length of Aß assemblies. The format is physicochemical. The settings on record: for length (mean ± sd): electron microscopy; for filament length, overall: human AD brain.
Data set [11] deals with Aß. The format is biochemical, mouse.

“Also recorded” adds a separate entry of the source.

Results on two substances are retold here after paper doi:10.1101/2025.10.10.681740, “Distinct Filament Conformation for Receptor-Bound Amyloid-ß from Alzheimer’s Disease Brain” (bioRxiv, 2025).

On to amyloid-ß [Aß], for which the “off-rate from PrP^C” value in data set [1] is “slow off-rate with a half-life of days”.

For “receptor-bound Aß: PSCMA-released, IC16-immunopurified Aß filament pool from Alzheimer's disease brain”, the “number of monomers per assembly” value in data set [2] is recorded as “about 300”. Further, the “size by migration of globular proteins” value in data set [3] is reported as about 650 kDa. Besides, the “length of filaments at completion of polymerization” value in data set [4] (5 μM Aß42, without seeds or with 20 nM seeds, negative stain EM) is 200-500 nm. Besides, in data set [4] (4 different brains, 20 nM seeds, 5 μM Aß42), the “filament length compared with other seeds / no seeds” value is “significantly shorter”. Moreover, the “PrP^C binding, summary” value in data set [5] is listed as “binds”. Also, in data set [5], the “apparent avidity for PrP^C in PLISA” value is “binds PrP^C with the affinity similar to that for synthetic Aß oligomeric preps (F12)”. In addition, the “dendrite density (MAP2 area)” value in [6] (160 pM Brain A, 80 pM Brain B, 16 pM Brain C, vs control brain fraction) was “does not change”. In addition, the “synaptic density (Synapsin1/Homer1b/c overlap at MAP2 dendrites)” value in data set [6] (16-160 pM assembly (4-40 nM monomer equivalent), three AD brains vs control brain fraction) was “significantly reduced; also recorded: potently suppresses synapse density”. Also, the “distance of PrP^C-associated gold particles from filament tips” value in [7] is at most 5 nm. Moreover, the “Aß40 reactivity, receptor-bound vs fibrillary pool” value in [8] (carboxyl terminus, normalized to mid-region antibody) is given as “greater for Aß40 in the receptor-bound pool”. For the same substance, the “amino-terminal epitope immunoreactivity, receptor-bound vs sarkosyl-insoluble” value is “five-fold enriched” in data set [8] and “significant increase in the immunoreactivity with antibodies directed against N-terminus of Aß” in data set [8] (listed as Receptor-bound Aß). Also, in [8] (normalized to mid-region antibody), the “pyroglutamylated Aß reactivity, receptor-bound vs insoluble fibrillary Aß” value is “present equally in both receptor-bound Aß and insoluble fibrillary Aß”. The “maximal ThT fluorescence” value in data set [9] (20 nM monomer equivalent seeds, 5 μM Aß42, vs no seeds) is recorded as “reduced the maximal fluorescence achieved”. Also, the “effect on Aß42 polymerization rate as seed” value in data set [9] (20 nM monomer equivalent, 5 μM Aß42, n=19 experiments, Brains A-D, vs no seeds) was “significantly slowed polymerization”. Besides, the “length (mean ± sd)” value in data set [10] (second of three AD brains) amounted to 70±24.4 nm; in [10] (third of three AD brains), 71±29.2 nm. Besides, the figures for the “filament length, overall” value in [10] and in [10] (listed as Receptor-bound amyloid-ß) were “about 65 nm” and 65 nm, respectively. Moreover, in [11], the “amount detected in APP/PS1, Prnp−/− mice (vs WT Prnp background)” value is listed as “Significantly lower amount”. Moreover, the “reduction of Aß released by PSCMA when PrP^C was absent” value in data set [11] was “about 50%”.
